Legend:
[1] = Solvent screening for dissolving drugs and polymers; format: physicochemical; conditions: added to 1 ml of test solvent, vortex; smallest amount of solvent for immediate solubilization
Experimental: The following solvents were compared for use as drug solvents in nanoprecipitation: acetone, ethanol, tetrahydrofuran (THF), acetic acid, acetonitrile, dimethylsulfoxide (DMSO), dimethylformamide (DMF), N-methylpyrrolidone (NMP), methanol, n-propanol and isopropanol.
Chloroform, dichloromethane (DCM), ethanol, acetone, methanol and ethyl acetate were tested as polymer solvents.
Drugs (thyrotropin-releasing hormone (TRH), oxytocin, and luteinizing hormone-releasing hormone (LHRH)) and polymers (polysebacic acid, and PLGA (poly(lactide-co-glycolide)) with either a 1:1 or 3:1 molar ratio of lactide to glycolide) were added to 1 ml of test solvent and stirred vigorously by vortex.

[2] = in vivo; cited from earlier work

| best solvent for dissolving [1] | Compound | plasma half-life [2] |
| --- | --- | --- |
| acetic acid | CC[C@H](C)[C@@H]1NC(=O)[C@H](Cc2ccc(O)cc2)NC(=O)[C@@H](N)CSSC[C@@H](C(=O)N2CCC[C@H]2C(=O)N[C@@H](CC(C)C)C(=O)NCC(N)=O)NC(=O)[C@H](CC(N)=O)NC(=O)[C@H](CCC(N)=O)NC1=O [oxytocin] |  |
| Ethanol | NC(=O)[C@@H]1CCCN1C(=O)[C@H](Cc1cnc[nH]1)NC(=O)[C@@H]1CCC(=O)N1 [TRH, pyroglutamyl-histidyl-proline-amide] | about 8 minutes |

| Compound | best solvent for dissolving [1] | plasma half-life [2] |
| --- | --- | --- |
| luteinizing hormone-releasing hormone [LHRH] | acetic acid |  |

Reference: patent publication US11660270B2, “Nanoparticle compositions” (Indiana University Research and Technology Corporation, priority 2017, dated 2023)
